We go through 28 compounds from patent US7335665B2, “Spirocyclic piperidines as MCH1 antagonists and uses thereof” (H - Lundbeck A/S, priority 2003, dated 2008).

For orientation: Ki means the dissociation constant of the complex between target and ligand, obtained from inhibition or displacement. A word on the Kd: it is the concentration at which binding is half-saturated.

T2 sequence (P97639 whole entry): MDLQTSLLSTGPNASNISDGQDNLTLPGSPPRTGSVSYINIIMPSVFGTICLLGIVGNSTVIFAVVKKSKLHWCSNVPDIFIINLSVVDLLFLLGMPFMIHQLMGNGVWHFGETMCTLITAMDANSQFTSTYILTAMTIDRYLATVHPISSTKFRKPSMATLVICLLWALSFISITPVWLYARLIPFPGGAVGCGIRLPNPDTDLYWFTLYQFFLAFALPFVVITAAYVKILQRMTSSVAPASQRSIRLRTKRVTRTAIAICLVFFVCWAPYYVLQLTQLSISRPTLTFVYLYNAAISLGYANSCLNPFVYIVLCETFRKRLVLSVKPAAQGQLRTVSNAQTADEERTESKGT

The target in the first assay is T1, rat MCH1 receptor (Rattus norvegicus, UniProt P97639).
T1 construct: expressed in transfected cells; host or cells: Human embryonic kidney Peak rapid 293 cells (Peakr293), transient, calcium phosphate; membranes
T1 sequence (P97639 whole entry): as above
In words: Radioligand binding assay at cloned rat MCH1 receptor ([3H]Compound A displacement). To be noted: KI, cloned rat MCH1, membranes of transfected Peakr293 cells, 0.08 nM [3H]Compound A, 25° C., 90 minutes. An outline of the steps:
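Membranes from Peakr293 cells transiently transfected with rat MCH1 receptor were incubated with 0.08 nM [3H]Compound A in 50 mM Tris pH 7.4, 10 mM MgCl2, PMSF, 1,10-phenanthroline and 0.2% BSA, 90 min at 25° C. Bound ligand was collected by filtration; nonspecific binding was defined with […] Compound A.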
As to `O=C(NCCCN1CCC2(CC1)OCc1ccccc12)C1(c2ccc(F)cc2)CCCC1` [Example 79, [(4-FLUOROPHENYL)CYCLOPENTYL]-N-(3-(SPIRO[1,3-DIHYDROISOBENZOFURAN-1,4′-PIPERIDINE]-10-YL)PROPYL)CARBOXAMIDE], the affinity, expressed as Ki, was 0.514 µM.

Turning to `O=C(NCCCN1CCC2(CC1)OCc1ccccc12)C1(c2ccc(F)cc2)CCCCC1` [Example 80, [(4-FLUOROPHENYL)CYCLOHEXYL]-N-(3-(SPIRO[1,3-DIHYDROISOBENZOFURAN-1,4′-PIPERIDINE]-10-YL)PROPYL)CARBOXAMIDE], the affinity corresponds to a Ki of 0.174 µM.

`CC(C(=O)NCCCN1CCC2(CC1)OCc1ccccc12)c1ccc(F)cc1` (centres unmarked) [Example 82, 2-(4-FLUOROPHENYL)-N-(3-(SPIRO[1,3-DIHYDROISOBENZOFURAN-1,4′-PIPERIDINE]-10-YL) PROPYL) PROPANAMIDE] came in with an inhibition constant (Ki) of 0.679 µM.

`O=C(NCCCN1CCC2(CC1)OCc1ccccc12)C(c1ccc(F)cc1)c1ccc(F)cc1` [Example 84, 2,2-BIS(4-FLUOROPHENYL)-N-(3-(SPIRO[1,3-DIHYDROISOBENZOFURAN-1,4′-PIPERIDINE]-10-YL)PROPYL)ACETAMIDE] registered a Ki of 0.0049 µM.

`O=C(Cc1ccc(F)c(F)c1)NCCCN1CCC2(CC1)OCc1ccccc12` [Example 86, 2-(3,4-DIFLUOROPHENYL)-N-(3-(SPIRO[1,3-DIHYDROISOBENZOFURAN-1,4′-PIPERIDINE]-10-YL)PROPYL)ACETAMIDE]: the affinity, expressed as Ki, was 0.379 µM.

With `O=C(NCCCN1CCC2(CC1)OCc1ccccc12)C1(c2ccc(Cl)cc2)CCC1` [Example 87, [(4-CHLOROPHENYL)CYCLOBUTYL]-N-(3-(SPIRO[1,3-DIHYDROISOBENZOFURAN-1,4′-PIPERIDINE]-10-YL)PROPYL)CARBOXAMIDE], affinity was put at a Ki of 0.417 µM.

The compound `CC(C(=O)NCCCN1CCC2(CC1)OCc1ccccc12)(c1ccccc1)c1ccccc1` [Example 88, 2,2-DIPHENYL-N-(3-(SPIRO[1,3-DIHYDROISOBENZOFURAN-1,4′-PIPERIDINE]-10-YL)PROPYL)PROPANAMIDE] had a Ki of 0.144 µM.

With `O=C1OC2(CCN(CCCNC(=O)C(c3ccc(Cl)cc3)c3ccc(Cl)cc3)CC2)c2ccccc21` [Example 94, 2,2-BIS(4-CHLOROPHENYL)-N-[3-(1-OXOSPIRO[3-HYDROISOBENZOFURAN-3,4′-PIPERIDINE]-10-YL)PROPYL]ACETAMIDE], the affinity corresponds to a Ki of 0.6 µM.

In turn, `Cc1ccc(C(C(=O)NCCCN2CCC3(CC2)C(=O)CCc2ccccc23)c2ccc(C)cc2)cc1` [Example 97, 2,2-BIS(4-METHYL)PHENYL)-N-[3-(2-OXOSPIRO[1,3,4-TRIHYDRONAPHTHALENE-1,4′-PIPERIDINE]-11-YL)PROPYL]ACETAMIDE] displayed a Ki of 0.428 µM.

In turn, `O=C(NCCCN1CCC2(CC1)OCc1cc(F)c(F)c(F)c12)C(c1ccccc1)c1ccccc1` [Example 99, 2,2-DIPHENYL-N-[3-(4,5,6-TRIFLUOROSPIRO[1,3-DIHYDROISOBENZOFURAN-3,4′-PIPERIDINE]-10-YL)PROPYL]ACETAMIDE] came in with an inhibition constant (Ki) of 0.0116 µM.

The assay is the same for the next values; noted with them: cloned rat MCH1, membranes of transfected Peakr293 cells, 0.08 nM [3H]Compound A, 25° C., 90 minutes; read-out: KI.
For the compound `CC(C)(C(=O)NCCCN1CCC2(CC1)OCc1ccccc12)c1ccc(Cl)cc1` [Example 81, 2-(4-CHLOROPHENYL)-2-METHYL-N-(3-(SPIRO[1,3-DIHYDROISOBENZOFURAN-1,4′-PIPERIDINE]-10-YL)PROPYL)PROPANAMIDE], the Ki was determined as 0.185 µM.

As for `CC(C(=O)NCCCN1CCC2(CC1)OCc1ccccc12)c1ccc(Cl)cc1` (centres unmarked) [Example 83, 2-(4-CHLOROPHENYL)-N-(3-(SPIRO[1,3-DIHYDROISOBENZOFURAN-1,4′-PIPERIDINE]-10-YL)PROPYL)PROPANAMIDE], the Ki worked out at 0.557 µM.

In the case of `O=C(NCCCN1CCC2(CC1)OCc1ccccc12)C1(c2ccc(Cl)cc2)CCCC1` [Example 85, [(4-CHLOROPHENYL)CYCLOPENTYL]-N-(3-(SPIRO[1,3-DIHYDROISOBENZOFURAN-1,4′-PIPERIDINE]-10-YL)PROPYL)CARBOXAMIDE], the Ki came to 0.183 µM.

For the compound `O=C(NCCCN1CCC2(CC1)OCc1ccccc12)C1(c2ccc(Cl)cc2)CC1` [Example 89, [(4-CHLOROPHENYL)CYCLOPROPYL]-N-(3-(SPIRO[1,3-DIHYDROISOBENZOFURAN-1,4′-PIPERIDINE]-10-YL)PROPYL)CARBOXAMIDE], the Ki was found to be 0.481 µM.

`O=C(NCCCN1CCC2(CC1)OCc1ccccc12)C(c1ccc(Cl)cc1)c1ccc(Cl)cc1` [Example 90, 2,2-BIS(4-CHLOROPHENYL)-N-(3-(SPIRO[1,3-DIHYDROISOBENZOFURAN-1,4′-PIPERIDINE]-10-YL)PROPYL)ACETAMIDE]: the Ki worked out at 0.0054 µM.

`O=C(NCCCN1CCC2(CC1)Cc1ccccc1C2=O)C(c1ccc(Cl)cc1)c1ccc(Cl)cc1` [Example 91, 2,2-BIS(4-CHLOROPHENYL)-N-[3-(1-OXOSPIRO[INDANE-2,4′-PIPERIDINE]-10-YL)PROPYL]ACETAMIDE]: the inhibitory constant (Ki) was 0.381 µM.

As to `O=C(NCCCN1CCC2(CC1)Cc1ccccc1C2=O)C(c1ccc(F)cc1)c1ccc(F)cc1` [Example 92, 2,2-BIS(4-FLUOROPHENYL)-N-[3-(1-OXOSPIRO[INDANE-2,4′-PIPERIDINE]-10-YL)PROPYL]ACETAMIDE], the inhibition constant (Ki) was determined as 0.0616 µM.

Consider `O=C1OC2(CCN(CCCNC(=O)C(c3ccccc3)c3ccccc3)CC2)c2ccccc21` [Example 93, N-[3-(1-OXOSPIRO[3-HYDROISOBENZOFURAN-3,4′-PIPERIDINE]-10-YL)PROPYL]-2,2-DIPHENYLACETAMIDE], for which the Ki came out at 0.783 µM.

For `O=C1OC2(CCN(CCCNC(=O)C(c3ccc(F)cc3)c3ccc(F)cc3)CC2)c2ccccc21` [Example 95, 2,2-BIS(4-FLUOROPHENYL)-N-[3-(1-OXOSPIRO[3-HYDROISOBENZOFURAN-3,4′-PIPERIDINE]-10-YL)PROPYL]ACETAMIDE], the Ki turned out to be 0.0846 µM.

For `O=C(NCCCN1CCC2(CCCc3ccccc32)CC1)C(c1ccccc1)c1ccccc1` [Example 96, 2,2-DIPHENYL-N-(3-(SPIRO[1,2,3,4-TETRAHYDRONAPHTHALENE-1,4′-PIPERIDINE]-11-YL) PROPYL)ACETAMIDE], the Ki was found to be 0.128 µM.

Turning to `O=C(NCCCN1CCC2(CC1)C(=O)CCc1ccccc12)C(c1ccccc1)c1ccccc1` [Example 98, N-[3-(2-OXOSPIRO[1,3,4-TRIHYDRONAPHTHALENE-1,4′-PIPERIDINE]-11-YL)PROPYL]-2,2-DIPHENYLACETAMIDE], the Ki amounted to 0.682 µM.

For `O=C(NCCCN1CCC2(CC1)OCc1ccc(Cl)cc12)C(c1ccccc1)c1ccccc1` [Example 100, N-[3-(5-CHLOROSPIRO[1,3-DIHYDROISOBENZOFURAN-3,4′-PIPERIDINE]-10-YL)PROPYL]-2,2-DIPHENYLACETAMIDE], the Ki was found to be 0.0026 µM.

For the compound `O=C(NCCCN1CCC2(CC1)OCc1ccc(F)cc12)C(c1ccccc1)c1ccccc1` [Example 101, N-[3-(5-FLUOROSPIRO[1,3-DIHYDROISOBENZOFURAN-3,4′-PIPERIDINE]-10-YL)PROPYL]-2,2-DIPHENYLACETAMIDE], the Ki came to 0.0058 µM.

Consider `CC(C)c1ccc2c(c1)COC21CCN(CCCNC(=O)C(c2ccccc2)c2ccccc2)CC1` [Example 102, N-{3-[5-(METHYLETHYL)SPIRO[1,3-DIHYDROISOBENZOFURAN-1,4′-PIPERIDINE]-10-YL]PROPYL}-2,2-DIPHENYLACETAMIDE], for which the inhibitory constant (Ki) was 0.162 µM.

Consider `Cc1ccc2c(c1)COC21CCN(CCCNC(=O)C(c2ccccc2)c2ccccc2)CC1` [Example 103, N-[3-(5-METHYLSPIRO[1,3-DIHYDROISOBENZOFURAN-1,4′-PIPERIDINE]-10-YL)PROPYL]-2,2-DIPHENYLACETAMIDE], for which the Ki is 0.0147 µM.

Another assay concerns MCH-1 receptor.
Experiment: not given
To be noted: rat and human MCH-1; cited from earlier work.
With `CN(C)CC1CCc2cc(NC(=O)c3ccc(-c4ccc(F)cc4)cc3)ccc2C1` (centres unmarked) [Example T-226296], the “affinity for the MCH-1 receptor” value was 5 to 9 nM.

Another assay has as its target T2, MCH-1 receptor (Rattus norvegicus, UniProt P97639).
T2 construct: host or cells: in vivo, endogenous receptor of the animal
Experiment: not given
The settings on record: in vivo; cited from earlier work.
Take `CN(C)CC1CCc2cc(NC(=O)c3ccc(-c4ccc(F)cc4)cc3)ccc2C1` (centres unmarked) [Example T-226296]: the “food intake induced by the intracerebroventricular application of MCH” value is “inhibit food intake”.

The next assay deals with G4F-7 cells.
Experiment: not given
The settings on record: inhibition of radioiodinated [Phe13,Tyr19]-MCH binding; cited from earlier work.
As for “native MCH: Melanin-concentrating hormone, cyclic peptide”, the inhibitory constant (Ki) was 0.012 µM.

The assay is the same for the next values; noted with them: radioiodinated ligand, G4F-7 mouse melanoma cells; cited from earlier work.
For [Phe^13,Tyr^19]-MCH, the Kd was 0.000118 µM.
